Laboratory results from ChEMBL document CHEMBL1201862, “PubChem BioAssay data set” (2004).
Activity calls are given as the source filed them.

What was measured:
[1] = target: Dual specificity tyrosine-phosphorylation-regulated kinase 1A (Rattus norvegicus, UniProt Q63470); type: biochemical, Homo sapiens
[2] = HeLa cell cytotoxicity, dose response, cytotoxicity control for MgcRacGAP inhibitor project (AID 624300); type: functional
[3] = target: T1, Rac GTPase-activating protein 1 (Homo sapiens, UniProt Q9H0H5); assay: MgcRacGAP GTPase-activating activity inhibitors, confirmation, biochemical, ADP Hunter fluorescence, primary and confirmatory (AID 624330); type: functional
T1 sequence (Q9H0H5 whole entry): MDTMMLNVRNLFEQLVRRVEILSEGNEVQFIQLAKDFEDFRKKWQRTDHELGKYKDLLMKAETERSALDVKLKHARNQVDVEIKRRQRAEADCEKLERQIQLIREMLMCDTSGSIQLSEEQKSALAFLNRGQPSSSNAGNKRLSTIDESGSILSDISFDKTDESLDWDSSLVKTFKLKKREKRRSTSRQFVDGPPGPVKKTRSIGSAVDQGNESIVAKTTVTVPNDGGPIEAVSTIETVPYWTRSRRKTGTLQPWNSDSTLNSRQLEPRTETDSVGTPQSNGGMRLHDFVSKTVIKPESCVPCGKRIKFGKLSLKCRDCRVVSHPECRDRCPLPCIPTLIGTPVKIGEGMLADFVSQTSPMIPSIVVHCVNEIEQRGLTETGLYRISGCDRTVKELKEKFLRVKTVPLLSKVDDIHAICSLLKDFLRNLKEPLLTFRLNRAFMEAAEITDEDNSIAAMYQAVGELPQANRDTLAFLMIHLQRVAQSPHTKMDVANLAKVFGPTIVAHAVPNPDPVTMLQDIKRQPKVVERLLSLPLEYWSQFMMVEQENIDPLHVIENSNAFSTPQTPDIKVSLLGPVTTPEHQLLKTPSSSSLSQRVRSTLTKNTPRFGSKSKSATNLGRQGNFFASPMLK

[4] = test system: HEK293; assay: NOD1 signaling inhibitors, primary screen, cell-based, luminescence, uHTS (AID 1578); type: functional; details: Homo sapiens
[5] = test system: HEK293; assay: cells; type: functional, cell-based; details: Homo sapiens
[6] = test system: HEK293; assay: cells; type: functional, cell-based; details: Homo sapiens; remark: listed apart in the source
[7] = test system: HEK293; assay: NOD2 signaling inhibitors in MDP-stimulated cells, cell-based, uHTS, luminescence (AID 2001); type: functional; details: Homo sapiens
[8] = target: T2, Voltage-gated N-type calcium channel alpha-1B subunit/Amyloid beta A4 precursor protein-binding family A member 1 (Homo sapiens, UniProt Q00975+Q02410); type: protein assay
[9] = target: T2, Voltage-gated N-type calcium channel alpha-1B subunit/Amyloid beta A4 precursor protein-binding family A member 1; type: protein assay; remark: listed apart in the source
[10] = target: T3, Adenosylmethionine-8-amino-7-oxononanoate aminotransferase (Mycobacterium tuberculosis, UniProt P9WQ81); assay: Mycobacterium tuberculosis BioA enzyme inhibitor Measured in Biochemical System Using Plate Reader - 2163-02_Inhibitor_Dose_CherryPick_Activity.; type: functional, Mycobacterium tuberculosis UT205
T3 sequence (P9WQ81 whole entry): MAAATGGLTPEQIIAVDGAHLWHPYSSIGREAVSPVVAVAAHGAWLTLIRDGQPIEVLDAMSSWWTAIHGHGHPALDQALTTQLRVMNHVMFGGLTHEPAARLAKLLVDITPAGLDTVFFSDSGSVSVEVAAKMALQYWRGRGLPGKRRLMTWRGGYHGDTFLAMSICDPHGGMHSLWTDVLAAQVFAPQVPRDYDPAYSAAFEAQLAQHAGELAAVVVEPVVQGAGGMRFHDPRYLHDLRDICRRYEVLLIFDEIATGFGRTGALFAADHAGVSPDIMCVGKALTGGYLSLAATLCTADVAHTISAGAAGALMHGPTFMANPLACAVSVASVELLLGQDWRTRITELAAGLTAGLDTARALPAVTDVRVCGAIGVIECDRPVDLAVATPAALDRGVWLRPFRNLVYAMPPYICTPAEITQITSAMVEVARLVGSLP

[11] = A cytotoxicity screen of small molecule inhibitors of the PhoP region in Salmonella typhi identified in the primary screen. [Related pubchem assays: 1850, 1864, 1985 ]; type: functional
[12] = target: Voltage-gated inwardly rectifying potassium channel KCNH2 (Homo sapiens, UniProt Q12809); details: Potency;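 note: confirmatory quantitative high-throughput screen measuring inhibition of hERG channel activity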
[13] = target: T4, DNA repair protein RAD52 homolog (Homo sapiens, UniProt P43351); type: functional, biochemical
T4 sequence (P43351 whole entry): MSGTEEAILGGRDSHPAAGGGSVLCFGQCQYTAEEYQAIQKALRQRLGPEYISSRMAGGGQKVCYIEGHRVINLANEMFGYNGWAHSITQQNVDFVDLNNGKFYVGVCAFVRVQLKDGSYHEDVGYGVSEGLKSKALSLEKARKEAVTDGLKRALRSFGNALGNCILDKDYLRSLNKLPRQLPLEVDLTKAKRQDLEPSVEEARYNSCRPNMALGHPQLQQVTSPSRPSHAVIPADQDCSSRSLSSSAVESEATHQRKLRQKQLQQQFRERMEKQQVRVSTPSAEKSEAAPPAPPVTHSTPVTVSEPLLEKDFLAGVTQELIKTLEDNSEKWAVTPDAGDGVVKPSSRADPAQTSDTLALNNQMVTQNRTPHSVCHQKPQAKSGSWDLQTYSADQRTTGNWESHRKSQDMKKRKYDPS

[14] = target: Cytochrome P450 3A4 (Homo sapiens, UniProt P08684); details: Potency;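 note: confirmatory qHTS run detecting inhibitors and substrates of CYP3A4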
[15] = target: Beta-2 adrenergic receptor (Homo sapiens, UniProt P07550); assay: beta2AR agonists driving receptor internalization, dose response, cell-based, FAP fluorogen, flow cytometry, cherry pick 1 (AID 588763); type: functional
[16] = target: T5, Probable nicotinate-nucleotide adenylyltransferase (Staphylococcus aureus (strain N315), UniProt P65502); type: functional, Staphylococcus aureus subsp. aureus N315;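 for IC50 Mean: confirmatory dose-response retesting of NadD inhibitor hits first found in an ultra-high-throughput screen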
[17] = target: T5, Probable nicotinate-nucleotide adenylyltransferase; type: functional, Staphylococcus aureus subsp. aureus N315; details: read-out: IC50_Mean

Sequence of Cytochrome P450 3A4 (P08684 whole entry): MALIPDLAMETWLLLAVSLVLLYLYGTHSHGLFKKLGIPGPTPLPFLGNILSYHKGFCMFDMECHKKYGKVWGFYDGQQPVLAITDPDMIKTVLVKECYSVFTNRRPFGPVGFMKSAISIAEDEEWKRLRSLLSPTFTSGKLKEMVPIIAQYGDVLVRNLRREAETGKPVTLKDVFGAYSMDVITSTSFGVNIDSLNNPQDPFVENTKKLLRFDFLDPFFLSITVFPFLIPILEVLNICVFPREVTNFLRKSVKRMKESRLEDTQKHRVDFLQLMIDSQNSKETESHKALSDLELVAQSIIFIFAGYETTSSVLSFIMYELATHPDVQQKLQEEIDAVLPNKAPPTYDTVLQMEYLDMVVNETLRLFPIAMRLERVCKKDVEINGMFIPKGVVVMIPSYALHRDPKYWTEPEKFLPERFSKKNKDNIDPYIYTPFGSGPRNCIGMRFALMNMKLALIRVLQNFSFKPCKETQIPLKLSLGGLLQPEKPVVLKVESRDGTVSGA
Sequence of Voltage-gated inwardly rectifying potassium channel KCNH2 (Q12809 whole entry): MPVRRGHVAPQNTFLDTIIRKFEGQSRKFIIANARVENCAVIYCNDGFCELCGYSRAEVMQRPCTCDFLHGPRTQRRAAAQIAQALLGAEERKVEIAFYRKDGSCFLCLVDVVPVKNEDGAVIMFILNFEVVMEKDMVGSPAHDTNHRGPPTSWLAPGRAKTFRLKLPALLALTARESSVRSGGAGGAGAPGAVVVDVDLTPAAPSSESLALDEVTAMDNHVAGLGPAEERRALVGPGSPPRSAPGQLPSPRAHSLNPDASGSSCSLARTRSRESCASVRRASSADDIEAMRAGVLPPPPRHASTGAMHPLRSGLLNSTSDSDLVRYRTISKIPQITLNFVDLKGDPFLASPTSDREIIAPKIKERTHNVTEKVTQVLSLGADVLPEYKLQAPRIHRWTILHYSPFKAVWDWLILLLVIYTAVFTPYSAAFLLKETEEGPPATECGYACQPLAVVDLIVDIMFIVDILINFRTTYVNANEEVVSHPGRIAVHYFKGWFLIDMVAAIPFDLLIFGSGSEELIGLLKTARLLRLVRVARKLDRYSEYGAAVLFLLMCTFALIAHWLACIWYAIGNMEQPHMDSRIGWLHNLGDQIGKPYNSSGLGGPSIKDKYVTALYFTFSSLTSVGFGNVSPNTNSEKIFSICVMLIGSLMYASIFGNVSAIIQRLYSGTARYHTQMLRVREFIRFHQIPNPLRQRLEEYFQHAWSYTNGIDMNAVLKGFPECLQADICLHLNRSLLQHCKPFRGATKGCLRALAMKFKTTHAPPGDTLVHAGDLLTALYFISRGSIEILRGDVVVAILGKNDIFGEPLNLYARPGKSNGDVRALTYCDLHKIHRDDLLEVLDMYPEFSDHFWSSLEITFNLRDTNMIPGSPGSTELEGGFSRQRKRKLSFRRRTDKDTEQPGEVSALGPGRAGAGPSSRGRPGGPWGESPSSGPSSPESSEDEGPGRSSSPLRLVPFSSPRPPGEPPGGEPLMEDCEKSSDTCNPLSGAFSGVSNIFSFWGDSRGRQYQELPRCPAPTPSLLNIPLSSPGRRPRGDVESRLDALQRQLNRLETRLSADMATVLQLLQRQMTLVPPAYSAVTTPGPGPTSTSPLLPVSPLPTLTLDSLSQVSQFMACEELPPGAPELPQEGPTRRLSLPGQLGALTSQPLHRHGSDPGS
T5 sequence (P65502 whole entry): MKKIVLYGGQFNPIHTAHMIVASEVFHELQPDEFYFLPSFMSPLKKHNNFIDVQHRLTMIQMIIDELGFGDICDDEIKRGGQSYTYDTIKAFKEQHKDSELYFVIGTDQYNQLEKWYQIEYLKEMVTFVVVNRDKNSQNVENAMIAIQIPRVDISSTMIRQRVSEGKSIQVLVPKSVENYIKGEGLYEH
T2 sequence (Q00975 whole entry): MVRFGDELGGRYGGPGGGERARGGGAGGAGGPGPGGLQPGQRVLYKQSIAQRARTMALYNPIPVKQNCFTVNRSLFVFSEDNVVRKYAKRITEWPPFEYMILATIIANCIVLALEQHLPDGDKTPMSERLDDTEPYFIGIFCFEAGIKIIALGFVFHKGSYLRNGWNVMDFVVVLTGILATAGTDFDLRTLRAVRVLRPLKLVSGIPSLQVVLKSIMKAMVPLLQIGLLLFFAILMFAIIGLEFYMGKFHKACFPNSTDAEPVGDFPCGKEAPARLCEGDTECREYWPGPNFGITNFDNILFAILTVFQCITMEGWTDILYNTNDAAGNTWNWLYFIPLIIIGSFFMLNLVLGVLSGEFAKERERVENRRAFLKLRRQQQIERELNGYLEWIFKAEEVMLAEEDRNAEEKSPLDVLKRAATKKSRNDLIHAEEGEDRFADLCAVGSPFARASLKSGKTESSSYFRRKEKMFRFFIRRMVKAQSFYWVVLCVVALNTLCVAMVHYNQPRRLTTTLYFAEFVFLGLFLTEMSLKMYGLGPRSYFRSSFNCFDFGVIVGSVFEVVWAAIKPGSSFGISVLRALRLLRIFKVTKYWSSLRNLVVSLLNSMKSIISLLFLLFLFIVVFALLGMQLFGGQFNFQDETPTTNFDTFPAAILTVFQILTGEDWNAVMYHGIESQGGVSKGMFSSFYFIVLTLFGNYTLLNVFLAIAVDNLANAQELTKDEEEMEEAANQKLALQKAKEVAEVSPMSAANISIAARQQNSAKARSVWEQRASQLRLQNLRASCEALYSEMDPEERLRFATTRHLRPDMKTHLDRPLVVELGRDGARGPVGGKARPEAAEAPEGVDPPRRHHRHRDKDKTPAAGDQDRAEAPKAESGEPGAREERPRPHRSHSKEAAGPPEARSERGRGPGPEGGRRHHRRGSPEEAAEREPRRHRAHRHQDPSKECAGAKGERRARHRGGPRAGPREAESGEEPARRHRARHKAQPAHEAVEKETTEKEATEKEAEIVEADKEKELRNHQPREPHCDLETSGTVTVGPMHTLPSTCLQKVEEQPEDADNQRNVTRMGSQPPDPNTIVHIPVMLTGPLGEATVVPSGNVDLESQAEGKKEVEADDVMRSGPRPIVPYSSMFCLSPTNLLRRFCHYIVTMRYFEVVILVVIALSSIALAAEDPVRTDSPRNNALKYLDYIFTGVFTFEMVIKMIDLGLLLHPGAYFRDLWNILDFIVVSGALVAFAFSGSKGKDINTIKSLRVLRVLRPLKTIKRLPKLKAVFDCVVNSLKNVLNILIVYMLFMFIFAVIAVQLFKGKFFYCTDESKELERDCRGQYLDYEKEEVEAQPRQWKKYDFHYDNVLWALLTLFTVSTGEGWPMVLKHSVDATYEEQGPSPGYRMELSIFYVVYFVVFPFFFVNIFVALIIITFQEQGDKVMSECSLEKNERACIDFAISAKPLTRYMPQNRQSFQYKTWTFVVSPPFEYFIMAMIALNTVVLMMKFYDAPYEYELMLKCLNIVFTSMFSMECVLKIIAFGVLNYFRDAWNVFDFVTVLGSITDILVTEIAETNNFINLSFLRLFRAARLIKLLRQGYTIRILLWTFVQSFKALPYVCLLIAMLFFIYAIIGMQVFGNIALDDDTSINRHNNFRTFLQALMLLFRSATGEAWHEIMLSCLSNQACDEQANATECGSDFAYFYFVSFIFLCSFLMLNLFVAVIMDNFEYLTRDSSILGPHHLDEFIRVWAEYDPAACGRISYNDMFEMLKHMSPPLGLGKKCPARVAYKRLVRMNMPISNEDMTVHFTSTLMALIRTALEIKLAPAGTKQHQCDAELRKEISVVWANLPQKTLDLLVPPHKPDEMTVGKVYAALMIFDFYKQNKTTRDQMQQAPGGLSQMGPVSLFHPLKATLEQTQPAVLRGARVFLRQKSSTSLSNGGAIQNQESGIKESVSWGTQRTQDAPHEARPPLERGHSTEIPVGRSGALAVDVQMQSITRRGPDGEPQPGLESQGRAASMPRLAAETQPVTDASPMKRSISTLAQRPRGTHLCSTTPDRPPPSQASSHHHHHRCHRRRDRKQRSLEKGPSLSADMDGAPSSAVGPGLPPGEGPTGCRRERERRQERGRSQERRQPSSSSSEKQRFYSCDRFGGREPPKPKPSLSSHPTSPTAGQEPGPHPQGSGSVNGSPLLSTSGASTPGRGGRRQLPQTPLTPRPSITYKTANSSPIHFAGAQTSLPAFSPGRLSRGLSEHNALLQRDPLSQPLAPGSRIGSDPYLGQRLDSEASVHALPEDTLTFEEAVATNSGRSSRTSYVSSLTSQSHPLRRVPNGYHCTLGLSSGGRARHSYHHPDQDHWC
T2 sequence (Q02410 whole entry): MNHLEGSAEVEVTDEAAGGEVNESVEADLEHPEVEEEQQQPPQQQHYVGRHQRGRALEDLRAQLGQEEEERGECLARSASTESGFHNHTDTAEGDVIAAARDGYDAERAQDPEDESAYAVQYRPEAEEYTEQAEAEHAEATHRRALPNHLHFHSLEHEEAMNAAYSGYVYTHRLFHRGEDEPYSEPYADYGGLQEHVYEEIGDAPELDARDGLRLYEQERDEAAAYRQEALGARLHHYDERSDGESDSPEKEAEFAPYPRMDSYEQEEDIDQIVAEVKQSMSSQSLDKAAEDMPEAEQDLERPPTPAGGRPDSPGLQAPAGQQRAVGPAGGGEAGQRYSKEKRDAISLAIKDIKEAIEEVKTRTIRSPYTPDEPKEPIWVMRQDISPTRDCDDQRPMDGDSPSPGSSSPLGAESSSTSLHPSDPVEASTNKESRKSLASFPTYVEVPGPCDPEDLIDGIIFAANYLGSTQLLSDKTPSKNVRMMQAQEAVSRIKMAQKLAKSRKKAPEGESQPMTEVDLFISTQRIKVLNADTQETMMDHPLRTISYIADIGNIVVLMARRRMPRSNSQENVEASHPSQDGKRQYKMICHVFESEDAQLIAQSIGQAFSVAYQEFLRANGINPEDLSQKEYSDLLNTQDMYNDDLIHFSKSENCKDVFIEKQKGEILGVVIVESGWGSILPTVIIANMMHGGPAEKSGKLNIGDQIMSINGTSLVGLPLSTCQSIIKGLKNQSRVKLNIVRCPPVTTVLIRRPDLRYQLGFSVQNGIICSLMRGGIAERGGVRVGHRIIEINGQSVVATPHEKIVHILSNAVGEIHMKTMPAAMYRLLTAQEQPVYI

COc1cc(/C=C2\SC(Nc3ccccc3)=NC2=O)cc(Cl)c1O
AC50 [1]: 7.03 µM (active) | CC50 [2]: 100 µM (active) | IC50 [3]: 55.7 µM (active)

CC(C)c1ccc(S(=O)(=O)c2cc3cc(Br)ccc3oc2=O)cc1
EC50 [4]: > 20 µM (inactive) | IC50 [5]: 3.29 µM (active) | IC50 [6]: 10.5 µM (active) | IC50 [7]: 3.73 µM (active)

Cc1ccc(-c2cc(C(=O)N3CC(C)CC(C)C3)c3ccccc3n2)o1 (configuration not stated)
IC50 [8]: 11.3 µM (active) | IC50 [9]: 5.42 µM (active)

CN(C)C(=O)C[C@@H]1C[C@@H]2c3cc(NC(=O)c4cccnc4)ccc3O[C@@H]2[C@@H](CO)O1
AC50 [10]: 12.7 µM (active)

COc1ccccc1CNC(=O)Cn1c(=O)oc2cc(S(=O)(=O)N3CCCC3)ccc21
EC50 [11]: > 50 µM (active)

COC(=O)c1c(C)[nH]c(C)c1C(=O)c1ccccc1Cc1ccccc1
AC50 [12]: 35.5 µM (inconclusive)

COc1cc2c3cc1Oc1cc(ccc1O)C[C@@H]1c4c(cc(OC)c(O)c4Oc4cccc(c4)C[C@@H]3N(C)CC2)CC[N+]1(C)C
AC50 [10]: 15.4 µM (active) | AC50 [13]: 8.2 µM (active)

COc1ccc2cc(C(=O)N/N=C/c3cc(OC)c(OC)c(OC)c3)[nH]c2c1
AC50 [1]: 3.83 µM (active)

O=C(Nc1cccnc1)c1ccc(N2CCCC2)c([N+](=O)[O-])c1
AC50 [10]: 1.19 µM (active)

CCC(=O)N1CC[C@@H]2[C@H]1c1cc(-c3cccc(F)c3)ccc1N(C)[C@H]2CO
AC50 [10]: 5.53 µM (active)

CCc1nc(Nc2ccc(O)cc2)c2oc3ccccc3c2n1
CC50 [2]: 87.6 µM (active) | IC50 [3]: 18.2 µM (active)

CC1(C)CC23C(=O)CCC(O)C2(C)CCC13 (configuration not stated) [3-NOR-3-OXOPANASINSAN-6-OL]
AC50 [14]: 15.8 µM (inconclusive)

COC(=O)C1=C(c2cccc(OCc3ccccc3)c2)C[C@@H]2CC[C@H]1N2C(=O)NCc1cccc(F)c1
EC50 [15]: 4.8 µM (active)

Cc1cc([N+](=O)[O-])ccc1N
AC50 [14]: 39.8 µM (inconclusive) | AC50 [12]: 17.8 µM (inconclusive)

CCCCCOC(=O)c1ccccc1C(=O)OCCCCC
AC50 [14]: 12.6 µM (inconclusive) | AC50 [12]: 39.8 µM (inconclusive)

Cc1cc(N(CCCl)CCCl)ccc1C=NNC(=O)Cc1cc(=O)oc2cc(O)ccc12
IC50 [16]: 8.75 µM (active) | IC50 [17]: 28.7 µM (active)
